Tests used:
A549 [1] = assay: Decrease in cell cycle associated protein expression in human A549 cells assessed as fold change in CDK2 expression at 10 uM after 6 hrs by Western blot analysis (reference value: 0.79); format: functional
A549 [2] = assay: Decrease in cell cycle associated protein expression in human A549 cells assessed as fold change in cyclin D2 expression at 10 uM after 12 hrs by Western blot analysis (reference value: 0.77); format: functional
A549 [3] = assay: Induction of cell cycle arrest in human A549 cells assessed as decrease in cell accumulation at S phase after 48 hrs by flow cytometric analysis; format: functional, cell-based; conditions: dose 2.5-10 µM
A549 [4] = assay: Potentiation of cisplatin-induced cell cycle arrest in human A549 cells assessed as accumulation at sub G1 phase at 2.5 uM in presence of cisplatin after 48 hrs by flow cytometric analysis (reference value: 17%); format: functional
[5] = Metabolic stability in rat plasma assessed as parent compound remaining at 10 uM measured after 2 hrs; format: ADME, cell-free; conditions: read-out: Stabilty
A549 [6] = assay: Decrease in cell cycle associated protein expression in human A549 cells assessed as fold change in cyclin D2 expression at 5 uM after 48 hrs by Western blot analysis (reference value: 0.46); format: functional
A549 [7] = assay: Decrease in cell cycle associated protein expression in human A549 cells assessed as fold change in cyclin D3 expression at 10 uM after 24 hrs by Western blot analysis (reference value: 1.09); format: functional
[8] = Protein binding in human plasma at 10 uM after 4 hrs; format: ADME, cell-free; conditions: read-out: PPB (converted)
A549 [9] = assay: Decrease in cell cycle associated protein expression in human A549 cells assessed as reduction in cyclin D3 expression after 48 hrs by Western blot analysis; format: functional, cell-based; conditions: dose 2.5-10 µM
A549 [10] = assay: Induction of cell cycle arrest in human A549 cells assessed as accumulation at sub G1 phase at 2.5 uM after 48 hrs by flow cytometric analysis (Rvb =1.9 %); format: functional
A549 [11] = assay: Decrease in cell cycle associated protein expression in human A549 cells assessed as fold change in cyclin E expression at 2.5 uM after 48 hrs by Western blot analysis (reference value: 0.37); format: functional
A549 [12] = assay: Potentiation of cisplatin-induced cell cycle arrest in human A549 cells assessed as accumulation at G1 phase at 5 uM in presence of cisplatin after 48 hrs by flow cytometric analysis (reference value: 14.4%); format: functional
A549 [13] = assay: Potentiation of cisplatin-induced cell cycle arrest in human A549 cells assessed as accumulation at G1 phase at 2.5 uM in presence of cisplatin after 48 hrs by flow cytometric analysis (reference value: 14.4%); format: functional
A549 [14] = assay: Decrease in cell cycle associated protein expression in human A549 cells assessed as fold change in cyclin D3 expression at 2.5 uM after 48 hrs by Western blot analysis (reference value: 0.73); format: functional
A549 [15] = assay: Decrease in cell cycle associated protein expression in human A549 cells assessed as fold change in CDK6 expression at 2.5 uM after 48 hrs by Western blot analysis (reference value: 1.05); format: functional
A549 [16] = assay: Decrease in cell cycle associated protein expression in human A549 cells assessed as fold change in cyclin D1 expression at 10 uM after 36 hrs by Western blot analysis (reference value: 0.68); format: functional
[17] = Increase in recruitment of […] p27KIP1 to CDK6 in human A549 cells assessed as fold change at 10 uM incubated for 12 hrs by immunoprecipitation/immunoblot analysis (reference value: 0.56); format: functional
A549 [18] = assay: Potentiation of etoposide-induced cell cycle arrest in human A549 cells assessed as accumulation at G1 phase at 5 uM in presence of etoposide after 48 hrs by flow cytometric analysis (reference value: 36%); format: functional
A549 [19] = assay: Decrease in cell cycle associated protein expression in human A549 cells assessed as reduction in CDK4 expression at 10 uM by Western blot analysis; format: functional, cell-based; conditions: time 6-48 hrs, TDE = time-dependent effect
A549 [20] = assay: Induction of cell cycle arrest in human A549 cells assessed as accumulation at sub G1 phase at 10 uM after 48 hrs by flow cytometric analysis (reference value: 1.9%); format: functional
A549 [21] = assay: Decrease in cell cycle associated protein expression in human A549 cells assessed as fold change in CDK2 expression at 2.5 uM after 48 hrs by Western blot analysis (reference value: 0.48); format: functional
A549 [22] = assay: Decrease in cell cycle associated protein expression in human A549 cells assessed as reduction in CDK6 expression after 48 hrs by Western blot analysis; format: functional, cell-based; conditions: dose 2.5-10 µM
A549 [23] = assay: Potentiation of cisplatin-induced cell cycle arrest in human A549 cells assessed as accumulation at sub G1 phase at 5 uM in presence of cisplatin after 48 hrs by flow cytometric analysis (reference value: 17%); format: functional
A549 [24] = assay: Potentiation of etoposide-induced cell cycle arrest in human A549 cells assessed as accumulation at S phase at 10 uM in presence of etoposide after 48 hrs by flow cytometric analysis (Rvb =12.3%); format: functional
[25] = Upregulation of p27KIP1 protein expression in human A549 cells assessed as fold change in expression at 10 uM after 36 hrs by Western blot analysis (reference value: 0.83); format: functional
A549 [26] = assay: Induction of cell cycle arrest in human A549 cells assessed as accumulation at G1 phase at 5 uM after 24 hrs by flow cytometric analysis (reference value: 53.1%); format: functional
A549 [27] = assay: Induction of cell cycle arrest in human A549 cells assessed as accumulation at G1 phase at 10 uM after 48 hrs by flow cytometric analysis (reference value: 65.5%); format: functional
A549 [28] = assay: Potentiation of etoposide-induced cell cycle arrest in human A549 cells assessed as accumulation at S phase at 5 uM in presence of etoposide after 48 hrs by flow cytometric analysis (Rvb =12.3%); format: functional
A549 [29] = assay: Decrease in cell cycle associated protein expression in human A549 cells assessed as fold change in cyclin E expression at 5 uM after 48 hrs by Western blot analysis (reference value: 0.37); format: functional
A549 [30] = assay: Decrease in cell cycle associated protein expression in human A549 cells assessed as reduction in CDK6 expression at 10 uM by Western blot analysis; format: functional, cell-based; conditions: time 6-48 hrs, TDE = time-dependent effect
A549 [31] = assay: Potentiation of etoposide-induced cell cycle arrest in human A549 cells assessed as accumulation at G2/M phase at 5 uM in presence of etoposide after 48 hrs by flow cytometric analysis (Rvb =18.9%); format: functional
A549 [32] = assay: Upregulation of p27KIP1 protein expression in human A549 cells at 10 uM by Western blot analysis; format: functional, cell-based; conditions: time 6-48 hrs, TDE = time-dependent effect
A549 [33] = assay: Decrease in cell cycle associated protein expression in human A549 cells assessed as fold change in CDK2 expression at 10 uM after 12 hrs by Western blot analysis (reference value: 0.79); format: functional
A549 [34] = assay: Decrease in cell cycle associated protein expression in human A549 cells assessed as fold change in CDK6 expression at 10 uM after 36 hrs by Western blot analysis (reference value: 0.7); format: functional
A549 [35] = assay: Decrease in cell cycle associated protein expression in human A549 cells assessed as fold change in CDK6 expression at 10 uM after 12 hrs by Western blot analysis (reference value: 0.7); format: functional
A549 [36] = assay: Decrease in cell cycle associated protein expression in human A549 cells assessed as fold change in CDK2 expression at 10 uM after 24 hrs by Western blot analysis (reference value: 0.79); format: functional

CN(C)C(=O)NCCCN(C)C1=Nc2ccccc2C(CC(=O)NCc2ccc(F)cc2)N1c1ccc(C2CCCCC2)cc1 (stereo unspecified)
fold change (FC) (A549 [1]): 0.91
fold change (FC) (A549 [2]): 0.36
Activity (A549 [3]): Dose-dependent effect
Activity (A549 [4]): 18.6%
remaining at 2 h, 10 µM [5]: 24.8%
fold change (FC) (A549 [6]): 0.52
fold change (FC) (A549 [7]): 0.51
fraction unbound at 4 h, 10 µM [8]: < 0.01
Activity (A549 [9]): Dose-dependent effect
Activity (A549 [10]): 1.3%
fold change (FC) (A549 [11]): 0.44
Activity (A549 [12]): 24.5%
Activity (A549 [13]): 19.2%
fold change (FC) (A549 [14]): 0.74
fold change (FC) (A549 [15]): 0.59
fold change (FC) (A549 [16]): 0.62
fold change (FC) [17]: 0.68
Activity (A549 [18]): 35.6%
Activity (A549 [19]): Tde
Activity (A549 [20]): 4%
fold change (FC) (A549 [21]): 0.47
Activity (A549 [22]): Dose-dependent effect
Activity (A549 [23]): 24.8%
Activity (A549 [24]): 6.2%
fold change (FC) [25]: 1.52
Activity (A549 [26]): 63.6%
Activity (A549 [27]): 77.4%
Activity (A549 [28]): 7.9%
fold change (FC) (A549 [29]): 0.49
Activity (A549 [30]): Tde
Activity (A549 [31]): 13.4%
Activity (A549 [32]): Tde
fold change (FC) (A549 [33]): 0.62
fold change (FC) (A549 [34]): 0.38
fold change (FC) (A549 [35]): 0.64
fold change (FC) (A549 [36]): 0.61

From ChEMBL document CHEMBL4715696, “In vitro synergistic anticancer activity of the combination of T-type calcium channel blocker and chemotherapeutic agent in A549 cells” (Bioorg Med Chem Lett, 2016)
